# Assays:
# [1] = target: CSK (Homo sapiens, UniProt P41240); assay: KinAffinity cell-based binding assay using PBMC; set-up: purchased Carna Biosciences Inc
# [2] = test system: B-cells in human PBMC; assay: PBMC stimulation assay, anti-IgM-stimulated B-cell activation (CD69); assay type: cell-based; conditions: anti-IgM 1 μg/mL, 22 h, read-out: IC50 of CD69 inhibition, anti-IgM-stimulated B-cell activation
# Experimental: After culturing, the stimulated cells were stained with fluorescently labeled CD3, CD20, and CD69 antibodies. B-cells (identified by gating CD20-positive and CD3-negative cells) and T-cells (identified by gating CD3-positive and CD20-negative cells) were analyzed by flow cytometry to monitor the expression of CD69. […] GraphPad Prism version 5.04 (GraphPad Software, Inc., San Diego, CA, USA) and its base settings were used for initial values and convergence conditions.
# [3] = target: EGFR(G719C) (Homo sapiens, UniProt P00533, G719C); assay: biochemical; set-up: KINOMEscan scanMAX competition binding, DNA-tagged kinases, qPCR read-out, percent control at 300 nM; conditions: read-out: Percent control / Tirabrutinib
# [4] = target: PLK2 (Homo sapiens, UniProt Q9NYY3); assay: biochemical; set-up: KINOMEscan scanMAX competition binding, DNA-tagged kinases, qPCR read-out, percent control at 300 nM; conditions: read-out: Percent control / Zanubrutinib
# Chain of PLK2 (Q9NYY3 whole entry): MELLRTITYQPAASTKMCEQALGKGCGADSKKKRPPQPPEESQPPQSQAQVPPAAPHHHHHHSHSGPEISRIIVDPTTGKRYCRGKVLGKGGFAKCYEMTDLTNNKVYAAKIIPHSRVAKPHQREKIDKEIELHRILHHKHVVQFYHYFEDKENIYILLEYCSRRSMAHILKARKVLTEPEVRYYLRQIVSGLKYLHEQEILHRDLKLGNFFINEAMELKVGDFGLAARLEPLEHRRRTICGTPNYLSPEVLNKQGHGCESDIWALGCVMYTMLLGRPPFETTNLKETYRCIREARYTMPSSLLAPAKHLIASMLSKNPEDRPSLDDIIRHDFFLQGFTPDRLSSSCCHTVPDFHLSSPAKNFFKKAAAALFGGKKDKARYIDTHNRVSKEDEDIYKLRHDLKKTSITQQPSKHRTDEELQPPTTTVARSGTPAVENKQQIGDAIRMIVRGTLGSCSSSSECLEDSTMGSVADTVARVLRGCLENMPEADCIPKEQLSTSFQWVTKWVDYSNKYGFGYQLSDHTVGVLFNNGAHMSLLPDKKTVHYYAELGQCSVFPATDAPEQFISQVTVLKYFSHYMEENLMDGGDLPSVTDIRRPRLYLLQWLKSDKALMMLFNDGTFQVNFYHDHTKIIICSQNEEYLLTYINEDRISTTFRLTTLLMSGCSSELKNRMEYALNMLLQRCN
# [5] = target: T1, CDC2L5 (Homo sapiens, UniProt Q14004); assay: biochemical; set-up: KINOMEscan scanMAX competition binding, DNA-tagged kinases, qPCR read-out, percent control at 300 nM; conditions: read-out: Percent control / Zanubrutinib
# T1 construct: gene CDK13
# [6] = target: T2, IKK-beta (Homo sapiens, UniProt O14920); assay: biochemical; set-up: KINOMEscan scanMAX competition binding, DNA-tagged kinases, qPCR read-out, percent control at 300 nM; conditions: read-out: Percent control / Zanubrutinib
# T2 construct: gene IKBKB
# [7] = target: VRK2 (Homo sapiens, UniProt Q86Y07); assay: biochemical; set-up: KINOMEscan scanMAX competition binding, DNA-tagged kinases, qPCR read-out, percent control at 300 nM; conditions: read-out: Percent control / Zanubrutinib
# Chain of VRK2 (Q86Y07 whole entry): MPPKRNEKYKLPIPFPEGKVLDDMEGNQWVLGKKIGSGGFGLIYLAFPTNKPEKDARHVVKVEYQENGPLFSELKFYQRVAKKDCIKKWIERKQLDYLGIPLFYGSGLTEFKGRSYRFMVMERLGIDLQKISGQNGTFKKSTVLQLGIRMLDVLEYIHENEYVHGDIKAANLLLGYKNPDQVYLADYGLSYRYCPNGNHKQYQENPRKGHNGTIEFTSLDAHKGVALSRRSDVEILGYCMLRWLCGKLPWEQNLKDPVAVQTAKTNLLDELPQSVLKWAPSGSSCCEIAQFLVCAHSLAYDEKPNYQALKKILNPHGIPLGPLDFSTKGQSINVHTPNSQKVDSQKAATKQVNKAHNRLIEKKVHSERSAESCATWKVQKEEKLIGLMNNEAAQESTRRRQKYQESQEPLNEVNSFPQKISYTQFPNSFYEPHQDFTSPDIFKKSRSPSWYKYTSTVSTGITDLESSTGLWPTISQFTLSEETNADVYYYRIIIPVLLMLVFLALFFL
# [8] = target: PRKG2 (Homo sapiens, UniProt Q13237); assay: biochemical; set-up: KINOMEscan scanMAX competition binding, DNA-tagged kinases, qPCR read-out, percent control at 300 nM; conditions: read-out: Percent control / Zanubrutinib
# Chain of PRKG2 (Q13237 whole entry): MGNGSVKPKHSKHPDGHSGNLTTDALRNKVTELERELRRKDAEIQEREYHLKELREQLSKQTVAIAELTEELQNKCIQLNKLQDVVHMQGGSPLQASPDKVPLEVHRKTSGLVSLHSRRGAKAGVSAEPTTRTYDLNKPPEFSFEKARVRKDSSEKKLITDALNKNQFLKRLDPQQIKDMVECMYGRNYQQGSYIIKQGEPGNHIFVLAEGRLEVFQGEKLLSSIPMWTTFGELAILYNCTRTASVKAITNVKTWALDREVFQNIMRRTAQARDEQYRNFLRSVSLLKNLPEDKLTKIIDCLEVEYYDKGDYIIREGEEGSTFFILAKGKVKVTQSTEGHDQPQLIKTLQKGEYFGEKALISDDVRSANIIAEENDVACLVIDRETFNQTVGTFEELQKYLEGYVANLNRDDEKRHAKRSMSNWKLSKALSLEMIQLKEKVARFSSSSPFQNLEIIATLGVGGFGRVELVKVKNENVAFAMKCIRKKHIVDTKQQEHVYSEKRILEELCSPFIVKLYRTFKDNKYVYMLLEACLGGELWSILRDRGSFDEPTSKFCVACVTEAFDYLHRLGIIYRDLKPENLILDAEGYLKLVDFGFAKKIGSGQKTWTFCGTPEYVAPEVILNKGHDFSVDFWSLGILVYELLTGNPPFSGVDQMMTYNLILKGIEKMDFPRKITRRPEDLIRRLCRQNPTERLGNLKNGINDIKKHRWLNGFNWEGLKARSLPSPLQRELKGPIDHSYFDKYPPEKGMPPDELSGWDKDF
# [9] = target: MTOR (Homo sapiens, UniProt P42345); assay: biochemical; set-up: KINOMEscan scanMAX competition binding, DNA-tagged kinases, qPCR read-out, percent control at 300 nM; conditions: read-out: Percent control / Zanubrutinib
# [10] = target: T3, YANK3 (Homo sapiens, UniProt Q86UX6); assay: biochemical; set-up: KINOMEscan scanMAX competition binding, DNA-tagged kinases, qPCR read-out, percent control at 300 nM; conditions: read-out: Percent control / Acalabrutinib
# T3 construct: gene STK32C
# T3 sequence (Q86UX6 whole entry): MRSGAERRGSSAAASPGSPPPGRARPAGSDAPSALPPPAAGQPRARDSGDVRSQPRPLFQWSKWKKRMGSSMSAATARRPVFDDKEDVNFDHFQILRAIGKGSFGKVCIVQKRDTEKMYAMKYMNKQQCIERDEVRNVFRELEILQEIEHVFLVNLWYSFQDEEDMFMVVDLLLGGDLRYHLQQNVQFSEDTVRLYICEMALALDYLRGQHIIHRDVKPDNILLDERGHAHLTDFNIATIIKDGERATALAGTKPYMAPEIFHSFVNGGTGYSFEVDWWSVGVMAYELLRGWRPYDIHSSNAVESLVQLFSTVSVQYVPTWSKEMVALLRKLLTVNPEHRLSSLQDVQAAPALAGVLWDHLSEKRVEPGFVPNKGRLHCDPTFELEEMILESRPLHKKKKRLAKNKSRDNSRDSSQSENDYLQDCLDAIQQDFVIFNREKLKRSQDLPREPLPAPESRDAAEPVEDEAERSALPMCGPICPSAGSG
# [11] = target: T4, ABL1(F317I)-phosphorylated (Homo sapiens, UniProt P00519, F317I); assay: biochemical; set-up: KINOMEscan scanMAX competition binding, DNA-tagged kinases, qPCR read-out, percent control at 300 nM; conditions: read-out: Percent control / Acalabrutinib
# T4 construct: phosphorylated
# [12] = target: CDK9 (Homo sapiens, UniProt P50750); assay: biochemical; set-up: KINOMEscan scanMAX competition binding, DNA-tagged kinases, qPCR read-out, percent control at 300 nM; conditions: read-out: Percent control / Acalabrutinib
# Chain of CDK9 (P50750 whole entry): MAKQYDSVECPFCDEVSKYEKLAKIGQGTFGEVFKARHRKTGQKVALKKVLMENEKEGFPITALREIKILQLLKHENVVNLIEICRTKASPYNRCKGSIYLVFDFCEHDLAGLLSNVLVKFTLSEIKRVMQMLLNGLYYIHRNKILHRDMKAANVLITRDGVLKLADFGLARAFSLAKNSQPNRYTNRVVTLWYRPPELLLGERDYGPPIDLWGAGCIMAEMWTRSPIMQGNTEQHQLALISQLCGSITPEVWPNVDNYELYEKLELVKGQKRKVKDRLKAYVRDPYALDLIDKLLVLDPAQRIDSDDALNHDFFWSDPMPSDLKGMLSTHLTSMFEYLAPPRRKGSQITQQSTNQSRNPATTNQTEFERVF
# [13] = target: TAOK2 (Homo sapiens, UniProt Q9UL54); assay: biochemical; set-up: KINOMEscan scanMAX competition binding, DNA-tagged kinases, qPCR read-out, percent control at 300 nM; conditions: read-out: Percent control / Acalabrutinib
# [14] = target: MAP3K3 (Homo sapiens, UniProt Q99759); assay: biochemical; set-up: KINOMEscan scanMAX competition binding, DNA-tagged kinases, qPCR read-out, percent control at 300 nM; conditions: read-out: Percent control / Acalabrutinib
# Chain of MAP3K3 (Q99759 whole entry): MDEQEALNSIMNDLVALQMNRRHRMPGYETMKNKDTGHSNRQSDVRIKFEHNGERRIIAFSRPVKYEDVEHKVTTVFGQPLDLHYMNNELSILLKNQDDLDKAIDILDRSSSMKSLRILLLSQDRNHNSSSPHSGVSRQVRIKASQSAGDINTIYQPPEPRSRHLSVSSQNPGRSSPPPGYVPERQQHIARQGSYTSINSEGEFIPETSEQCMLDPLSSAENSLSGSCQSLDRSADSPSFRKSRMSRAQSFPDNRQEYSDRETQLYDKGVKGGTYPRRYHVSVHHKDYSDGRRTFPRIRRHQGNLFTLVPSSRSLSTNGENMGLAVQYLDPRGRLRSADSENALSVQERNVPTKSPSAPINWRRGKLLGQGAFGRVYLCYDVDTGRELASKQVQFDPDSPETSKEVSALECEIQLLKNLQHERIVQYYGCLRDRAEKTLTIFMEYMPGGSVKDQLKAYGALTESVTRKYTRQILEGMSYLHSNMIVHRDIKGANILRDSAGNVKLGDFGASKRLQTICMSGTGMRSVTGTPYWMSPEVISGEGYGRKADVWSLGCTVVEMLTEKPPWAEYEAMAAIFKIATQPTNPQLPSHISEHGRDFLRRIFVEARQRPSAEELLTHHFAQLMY
# [15] = target: T5, ASK1 (Homo sapiens, UniProt Q99683); assay: biochemical; set-up: KINOMEscan scanMAX competition binding, DNA-tagged kinases, qPCR read-out, percent control at 300 nM; conditions: read-out: Percent control / Acalabrutinib
# T5 construct: gene MAP3K5
# [16] = target: MARK3 (Homo sapiens, UniProt P27448); assay: biochemical; set-up: KINOMEscan scanMAX competition binding, DNA-tagged kinases, qPCR read-out, percent control at 300 nM; conditions: read-out: Percent control / Ibrutinib
# Chain of MARK3 (P27448 whole entry): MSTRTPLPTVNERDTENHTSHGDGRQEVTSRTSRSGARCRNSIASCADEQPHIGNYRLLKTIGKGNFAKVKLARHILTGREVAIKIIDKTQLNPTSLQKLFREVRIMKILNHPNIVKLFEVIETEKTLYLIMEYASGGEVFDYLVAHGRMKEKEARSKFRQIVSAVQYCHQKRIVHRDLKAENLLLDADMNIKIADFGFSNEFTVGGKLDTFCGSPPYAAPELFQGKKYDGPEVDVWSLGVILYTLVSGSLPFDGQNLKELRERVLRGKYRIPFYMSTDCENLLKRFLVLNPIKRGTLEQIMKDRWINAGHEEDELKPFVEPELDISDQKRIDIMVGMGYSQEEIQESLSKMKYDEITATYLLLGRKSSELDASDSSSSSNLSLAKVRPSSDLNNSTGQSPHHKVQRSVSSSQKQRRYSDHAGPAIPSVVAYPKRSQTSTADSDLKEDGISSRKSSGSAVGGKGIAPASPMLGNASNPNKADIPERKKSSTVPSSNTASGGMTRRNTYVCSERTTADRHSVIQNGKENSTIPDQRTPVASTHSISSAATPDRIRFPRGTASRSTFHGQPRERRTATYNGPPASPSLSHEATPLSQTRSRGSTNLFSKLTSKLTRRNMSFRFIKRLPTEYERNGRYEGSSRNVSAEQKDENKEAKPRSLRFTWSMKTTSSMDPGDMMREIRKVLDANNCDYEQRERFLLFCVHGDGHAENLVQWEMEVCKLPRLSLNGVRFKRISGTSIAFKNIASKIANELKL
# Chain of CSK (P41240 whole entry): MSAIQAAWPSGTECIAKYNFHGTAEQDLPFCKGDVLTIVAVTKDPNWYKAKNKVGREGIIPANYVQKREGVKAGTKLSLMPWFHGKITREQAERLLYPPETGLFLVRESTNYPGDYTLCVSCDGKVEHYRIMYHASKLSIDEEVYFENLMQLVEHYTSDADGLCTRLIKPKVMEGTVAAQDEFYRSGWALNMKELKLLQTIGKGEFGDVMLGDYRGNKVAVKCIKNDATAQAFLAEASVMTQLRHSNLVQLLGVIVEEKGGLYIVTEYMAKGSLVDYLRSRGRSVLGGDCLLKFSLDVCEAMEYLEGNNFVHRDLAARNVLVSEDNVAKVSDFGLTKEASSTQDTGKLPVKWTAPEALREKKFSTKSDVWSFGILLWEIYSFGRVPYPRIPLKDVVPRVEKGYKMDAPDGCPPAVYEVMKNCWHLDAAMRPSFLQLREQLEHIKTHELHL
smiles,measurement,setting,value
CC#CC(=O)N1CC[C@@H](n2c(=O)n(-c3ccc(Oc4ccccc4)cc3)c3c(N)ncnc32)C1 [Tirabrutinib],Kd,[1],> 3000 nM
same,IC50,[2],13.8 nM
same,remaining binding at 0.3 µM,[3],54%
C=CC(=O)N1CCC([C@@H]2CCNc3c(C(N)=O)c(-c4ccc(Oc5ccccc5)cc4)nn32)CC1 [Zanubrutinib],remaining binding at 0.3 µM,[4],100%
same,remaining binding at 0.3 µM,[5],99%
same,remaining binding at 0.3 µM,[6],100%
same,remaining binding at 0.3 µM,[7],97%
same,remaining binding at 0.3 µM,[8],85%
same,remaining binding at 0.3 µM,[9],88%
CC#CC(=O)N1CCC[C@H]1c1nc(-c2ccc(C(=O)Nc3ccccn3)cc2)c2c(N)nccn12 [Acalabrutinib],remaining binding at 0.3 µM,[10],84%
same,remaining binding at 0.3 µM,[11],94%
same,remaining binding at 0.3 µM,[12],94%
same,remaining binding at 0.3 µM,[13],93%
same,remaining binding at 0.3 µM,[14],86%
same,remaining binding at 0.3 µM,[15],93%
C=CC(=O)N1CCC[C@@H](n2nc(-c3ccc(Oc4ccccc4)cc3)c3c(N)ncnc32)C1 [Ibrutinib],remaining binding at 0.3 µM,[16],99%

# — publication PMC10004634 (PLOS ONE, 2023)
